Reference: article PMC10418366, “Fighting Celiac Disease: Improvement of pH Stability of Cathepsin L In Vitro by Computational Design” (International Journal of Molecular Sciences, 2023)

Molecular target: T1, rTcCathL1 (Tribolium castaneum cathepsin L) (Tribolium castaneum, UniProt D6X519)
T1 construct: gene AUGUSTUS-3.0.2_01950; mature enzyme after autocatalytic processing (pH 4.0, 37 °C) of recombinant proenzyme secreted by Pichia pastoris GS115 (pPICZalphaA); signal peptide and propeptide total 115 residues (stated for the model)
T1 sequence (D6X519 116-328): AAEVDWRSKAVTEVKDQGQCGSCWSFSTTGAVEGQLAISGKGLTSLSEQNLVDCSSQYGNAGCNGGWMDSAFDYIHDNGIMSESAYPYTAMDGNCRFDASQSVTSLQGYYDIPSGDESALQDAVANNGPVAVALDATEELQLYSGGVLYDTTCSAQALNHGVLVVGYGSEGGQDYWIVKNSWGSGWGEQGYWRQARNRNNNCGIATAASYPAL
Assay: active-site titration with irreversible inhibitor
Assay type: biochemical
Details: covalent, 37 °C assay with Glp-Phe-Gln-pNA, 6 mM cysteine, 1 mM EDTA

CC(C)C[C@H](NC(=O)[C@H]1O[C@@H]1C(=O)O)C(=O)NCCCCN=C(N)N [E-64]
active-site titration with irreversible inhibitor: titration of peptidase active sites with the irreversible inhibitor E-64
